Where “and” joins values, the source holds several entries; their conditions need not be identical. Equal entries are not always repeated.
Columns and labels:
[1] = test system: Balb/c mice; assay: In-vivo bioluminescent imaging of LNP compositions (Example 6); conditions: mRNA dose 5 μg FLUC (CRE/FLUC 1:1 LNP)
[2] = LNP size and polydispersity, Zetasizer Ultra; format: physicochemical
Protocol: (§1) For each LNP composition, the lipid mix and mRNA solution were mixed at a 1:3 ratio by volume, respectively, on a NanoAssemblr Ignite (Precision Nanosystems) at a total flow rate of 9 mL/min. The resulting compositions were then loaded into Slide-A-Lyzer G2 dialysis cassettes (10 k MWCO) and dialyzed in 200 times sample volume of 1×PBS for 2 hours at room temperature with gentle stirring. The PBS was refreshed, and the compositions were further dialyzed for at least 14 hours at 4° C. with gentle stirring. The dialyzed compositions were then collected and concentrated by centrifugation at 3000×g using Amicon Ultra centrifugation filters (100 k MWCO). The concentrated particles were characterized for size, polydispersity, and particle concentration using Zetasizer Ultra (Malvern Panalytical) and for mRNA encapsulation efficiency using Quant-iT RiboGreen RNA Assay Kit (ThermoFisher Scientific).

[3] = mRNA encapsulation efficiency, Quant-iT RiboGreen RNA Assay; format: physicochemical
Protocol: as §1

[4] = test system: Balb/c mice; assay: In-vivo bioluminescent imaging of LNP compositions (Example 3); conditions: for Bioluminescence, Liver / Bioluminescence, Lung / Bioluminescence, Pancreas / Bioluminescence, Spleen / Bioluminescence, Whole body: LNP with 5 μg Fluc+5 μg EPO mRNA intravenously, 4-6 hours post-dose, two values per compound; for Bioluminescence, Whole body: FIG. 1: average radiance (p/s/cm2/sr); for Organ selectivity of delivery: bioluminescent imaging in mice, Example 3
Text: C12-200 is commercially available ionizable lipid and has a chemical name of 1,1′-((2-(4-(2-((2-(bis(2-hydroxydodecyl)amino)ethyl)(2-hydroxydodecyl) amino)ethyl)piperazin-1-yl)ethyl)azanediyl)bis(dodecan-2-ol). A composition composed of ionizable lipid:structural lipid:sterol:EG-lipid (C12-200:DOPE:cholesterol:14:0 PEG2000 PE) at a molar ratio of 35:16:46.5:2.5, respectively. Lipids were solubilized in ethanol. These lipids were mixed at the above-indicated molar ratios and diluted in ethanol (organic phase) to 5.5 mM total lipid concentration. The mRNA solution (aqueous phase) was prepared with RNAse-free water and 100 mM citrate buffer pH 3 for a final concentration of 50 mM citrate buffer. The ionizable lipid to mRNA N:P ratio maintained at 15:1.
All other compositions (i.e., compositions of MC3 (a commercially available ionizable lipid having a chemical name of (6Z,9Z,28Z,31Z)-heptatriacont-6,9,28,31-tetraene-19-yl 4-(dimethylamino)butanoate, and compositions of novel ionizable lipids 7669, 7671, 7668, […], 7650) were composed of ionizable lipid:structural lipid:sterol:PEG-lipid (SDA lipid #:DSPC:cholesterol:14:0 PEG2000 PE) at a molar ratio of 50:38.5:10:1.5, respectively. Lipids were solubilized in ethanol. Compositions were then handled as above, except the formulations were maintained at ionizable lipid to mRNA N:P ratio of 6:1. The lipid mix and mRNA solution were mixed at a 1:3 ratio by volume, respectively, on a NanoAssemblr Ignite (Precision Nanosystems) at a total flow rate of 9 mL/min. Resulting compositions were then loaded into Slide-A-Lyzer G2 dialysis cassettes (10 k MWCO) and dialyzed in 200 times sample volume of 1×PBS for 4 hrs at room temp with gentle stirring. The PBS was refreshed, and the compositions were further dialyzed for at least 14 hrs at 4° C. with gentle stirring. The dialyzed compositions were then collected and concentrated by centrifugation at 2000×g using Amicon Ultra centrifugation filters (100 k MWCO). Concentrated particles were characterized for size, polydispersity, and particle concentration using Zetasizer Ultra (Malvern Panalytical) and for mRNA encapsulation efficiency using Quant-iT RiboGreen RNA Assay Kit (ThermoFisher Scientific).
8-9 week old female Balb/c mice were utilized for bioluminescence-based ionizable lipid screening efforts. Mice were obtained from Jackson Laboratories (JAX Stock: 000651) and allowed to acclimate for one week prior to manipulations. Animals were placed under a heat lamp for a few minutes before introducing them to a restraining chamber. The tail was wiped with alcohol pads (Fisher Scientific) and 100 μL of a lipid nanoparticle composition described above containing 10 μg total mRNA (5 μg Fluc+5 μg EPO) was injected intravenously using a 29G insulin syringe (Covidien). Any resulting bleeding was stemmed using a sterile gauze pad (Fisher Scientific) and animals were placed back into their home cage. 4-6 hours post-dose, animals were injected with 200 μL of 15 mg/mL D-Luciferin (GoldBio) and placed in an isoflurane induction chamber set to deliver 2.5% isoflurane delivered at an oxygen flow rate of 1-2 liters per min. After 5 minutes of isoflurane exposure, mice were placed in set nose cones inside the IVIS Lumina LT imager (PerkinElmer). LivingImage software was utilized for imaging. Whole body bio-luminescence was captured at auto-exposure after which animals were removed from the IVIS and placed into a CO2 chamber for euthanasia. Cardiac puncture was performed on each animal after placing it in dorsal recumbency, and blood collection was performed using a 25G insulin syringe (BD). Blood was collected in Lithium-Heparin coated tubes (Fisher Scientific) and immediately placed on ice. Once all blood samples were collected, tubes were spun at 2000G for 10 minutes using a tabletop centrifuge and plasma was aliquoted into individual Eppendorf tubes (Fisher Scientific) and stored at −80 C for subsequent EPO quantification. […]

SMILES | Bioluminescence, Liver [4] | Bioluminescence, Lung [4] | Bioluminescence, Pancreas [4] | Bioluminescence, Spleen [4] | Bioluminescence, Whole body [4] | Organ selectivity of delivery [4] | also measured
CCCCCCC(CCCCCC)CCCOC(=O)CCCCCN(CCCCCC(=O)OCCCC(CCCCCC)CCCCCC)CCOCCOCCN(C)C [Compound 2146, 4-hexyldecyl 11-(6-((4-hexyldecyl)oxy)-6-oxohexyl)-2-methyl-5,8-dioxa-2,11-diazaheptadecan-17-oate] |  |  |  |  |  |  | Bioluminescence (IV) Liver ([1]; 4-6 hours post-dose): 9.7E + 04; Bioluminescence (IV) Lung ([1]; 4-6 hours post-dose): 1.2E + 03; Bioluminescence (IV) Spleen ([1]; 4-6 hours post-dose): 4.7E + 04; Bioluminescence (IV) Whole Body ([1]; 4-6 hours post-dose): 7.4E + 03; Spleen: Liver Ratio ([1]; intravenous): 0.505; PDI ([2]; LNP with CRE/FLUC 1:1 mRNA): 0.26; Size (nm) ([2]; LNP with CRE/FLUC 1:1 mRNA): 81.0 nm; % EE ([3]; LNP with CRE/FLUC 1:1 mRNA): 96.5%
CCCCCC(CCCCC)CCCOC(=O)CCCCCCCN(CCO)CCCCCCCC(=O)OCCCC(CCCCC)CCCCC [Compound 2135, bis(4-pentylnonyl) 8,8′-((2-hydroxyethyl)azanediyl)dioctanoate] |  |  |  |  |  |  | PDI ([2]; LNP with EGFP mRNA): 0.04; Size (nm) ([2]; LNP with EGFP mRNA): 81.8 nm; % EE ([3]; LNP with EGFP mRNA): 96.2%
CCCCCCC(CCCCCC)CCCOC(=O)CCCCCCCN(CCO)CCCCCCCC(=O)OCCCC(CCCCCC)CCCCCC [Compound 2136, bis(4-hexyldecyl) 8,8′-((2-hydroxyethyl)azanediyl)dioctanoate] |  |  |  |  |  |  | PDI ([2]; LNP with EGFP mRNA): 0.04; Size (nm) ([2]; LNP with EGFP mRNA): 77.5 nm; % EE ([3]; LNP with EGFP mRNA): 95.5%
CCCCCCC(CCCCCC)CCCOC(=O)CCCCCCCN(CCCCCCCC(=O)OCCCC(CCCCCC)CCCCCC)CCCCN(C)C [Compound 7650, 4-hexyldecyl 8-[4-(dimethylamino)butyl-[8-(4-hexyldecoxy)-8-oxo-octyl]amino]octanoate] | 56300 and 83100 | 150000 and 138000 | 127000 and 87200 | 82400 and 108000 | 12100 and 10900 | selectively targeted the pancreas and lung over the whole body, liver, or spleen | 
CCCCC/C=C\C/C=C\CCCCCCCCC(CCCCCCCC/C=C\C/C=C\CCCCC)OC(=O)CCCN(C)C [MC3, (6Z,9Z,28Z,31Z)-heptatriacont-6,9,28,31-tetraene-19-yl 4-(dimethylamino)butanoate, reference compound] | 22000000 and 20300000 | 300000 and 258000 | 192000 and 232000 | 1660000 and 2060000 |  |  | 
CCCCCCC(CCCCCC)CCCOC(=O)CCCCCCCN(CCCCCCCC(=O)OCCCC(CCCCCC)CCCCCC)CCC(O)CN(C)C (stereo not drawn) [Compound 7676, 4-hexyldecyl 8-[[4-(dimethylamino)-3-hydroxy-butyl]-[8-(4-hexyldecoxy)-8-oxo-octyl]amino]octanoate] | 183000 and 161000 | 262000 and 170000 | 177000 and 220000 | 255000 and 259000 | 50900 and 30400 | selectively targeted the pancreas and lung over the whole body, liver, or spleen | 
CCCCCC(CCCCC)CCCN(C)C(=O)CCCCCCCN(CCCCCCCC(=O)N(C)CCCC(CCCCC)CCCCC)C(=O)CCN1CCCC1 [Compound 2242, N-methyl-8-(N-(8-(methyl(4-pentylnonyl)amino)-8-oxooctyl)-3-(pyrrolidin-1-yl)propanamido)-N-(4-pentylnonyl)octanamide] |  |  |  |  |  |  | PDI ([2]; LNP with FLUC/EPO 1:1 mRNA): 0.079; Size (nm) ([2]; LNP with FLUC/EPO 1:1 mRNA): 154.2 nm; % EE ([3]; LNP with FLUC/EPO 1:1 mRNA): 89.5%
CCCCCCC(CCCCCC)CCCOC(=O)CCCCCCCN(CCCCCCCC(=O)OCCCC(CCCCCC)CCCCCC)CCOCCOCCN(C)C [Compound 7669, 4-hexyldecyl 8-[2-[2-[2-(dimethylamino)ethoxy]ethoxy]ethyl-[8-(4-hexyldecoxy)-8-oxo-octyl]amino]octanoate] | 92400 and 129000 | 73000 and 70100 | 106000 and 87800 | 112000 and 91700 | 5120 and 2920 | selectively targeted the pancreas and lung over the whole body, liver, or spleen | 
CCCCCCC(CCCCCC)CCCOC(=O)CCCCCCCN(CCCCCCCC(=O)OCCCC(CCCCCC)CCCCCC)C(=O)CCN1CCCC1 [Compound 7671, 4-hexyldecyl 8-[[8-(4-hexyldecoxy)-8-oxo-octyl]-(3-pyrrolidin-1-ylpropanoyl)amino]octanoate] | 296000 and 184000 | 215000 and 180000 | 141000 and 185000 | 422000 and 574000 | 780000 and 772000 | selectively targeted the pancreas and lung over the whole body, liver, or spleen | 
CCCCCCCCCCC(O)CN(CCN1CCN(CCN(CC(O)CCCCCCCCCC)CC(O)CCCCCCCCCC)CC1)CCN(CC(O)CCCCCCCCCC)CC(O)CCCCCCCCCC (stereo not drawn) [Compound C12-200, 1,1′-((2-(4-(2-((2-(bis(2-hydroxydodecyl)amino)ethyl)(2-hydroxydodecyl)amino)ethyl)piperazin-1-yl)ethyl)azanediyl)bis(dodecan-2-ol), reference compound] | 92300000 and 69700000 |  | 236000 and 216000 | 1280000 and 1390000 |  |  | 
CCCCCCC(CCCCCC)CCCOC(=O)CCCCCCCN(CCCCCCCC(=O)OCCCC(CCCCCC)CCCCCC)C(=O)CCCN(C)C [Compound 7668, 4-hexyldecyl 8-[4-(dimethylamino)butanoyl-[8-(4-hexyldecoxy)-8-oxo-octyl]amino]octanoate] |  |  |  | 56400 and 60500 | 48500 and 26900 | selectively targeted the pancreas and lung over the whole body, liver, or spleen | 

— patent US20250049948A1, “NOVEL IONIZABLE LIPIDS AND LIPID NANOPARTICLES AND METHODS OF USING THE SAME” (Sail Biomedicines, Inc., priority 2021, published 2025)
